This note sets out measurements from patent US8765710B2, “2′,4′-substituted nucleosides as antiviral agents” (Gilead Pharmasset LLC, priority 2007, dated 2014).

pEC50: −log10 of the molar value.

Data set [1] has as its system HCV S282T cells. Nature of the data set: HCV inhibition in S282T cells. Format: cell-based. The conditions noted are these: Hepatitis C virus, read-out: HCV Inhibition S282T Cells EC90.
Data set [2] has as its system HBV in HepG2-AD38 cell line. Nature of the data set: HBV AD38 assay (HBV DNA in supernatant by real time PCR). The data set is classed as cell-based. The conditions noted are these: Hepatitis B virus; read-out: HBV Inhibition EC90. The protocol:
Biological Assays HBV AD38 Assay
The materials required for the assay comprise the following:
The HepG2-AD38 cell line.
The culture medium for HepG2-AD38 comprises DMEM-F/12, 10% fetal bovine serum, 100 IU/ml/100 ug/ml of Penicillin/streptomycin, 50 μg/ml kanamycin, 0.3 μg/ml tetracycline, and 200 μg/ml G418.
The assay medium for HepG2-AD38 comprises DMEM-F/12, 10% fetal bovine serum, 1001 U/ml/100 μg/ml of penicillin/streptomycin, 50 μg/ml kanamycin, and 200 μg/ml G418 Further materials comprise Phosphate buffered saline (PBS), Biocoated 96 well plates, DNeasy 96 tissue kit (Qiagen), QIAvac 96 vacuum manifold, Micro amp optical 96 well reaction plates (Applied Biosystems), Micro amp optical caps (Applied Biosystems), Tagman Universal PCR Master Mix (Applied Biosystems), and a 7700 Sequence detector (Applied Biosystems),
The primers and probes for HBV DNA comprise the 1125 nM forward primer (GGACCCCTGCTCGTGTTACA) (SEQ ID NO:1), the 1125 nM reverse primer (GAGAGAAGTCCACCACGAGTCTAGA) (SEQ ID NO:2), and the 250 nM probe (FAM-TGTTGACAAGAATCCTCACAATACCAC) (SEQ ID NO:3).
Seed 5×10^4 cells/well in 200 μl of culture medium in a 96 well biocoated plate and incubate the plate at 37° C. with 5% CO2. […]
A general note: Real-time PCR tracks product formation cycle by cycle.

Data set [3] in a line: Toxicity, luciferase assay in P4 CCR5-luc cells. The data set is classed as cell-based. The conditions noted are these: human, read-out: Cytotoxicity CC50, P4 Cells. The protocol: P4 CCR5-luc cells are plated at 10,000 cells per well (100 ul) in 96 well Opaque Assay plates and incubated overnight at 37° C. The next day, the media is aspirated from the plates and replaced by 200 ul of compound freshly diluted into media in 5 fold dilutions from 100 μM to 0.0062 μM. After 4 days of incubation at 37° C., the luciferase activity is measured in the cell lysate using the Bright Glow kit from Promega and the luminescence measured using a Victor apparatus from Perkin-Elmer.

Data set [4] in a line: MTS cytotoxicity assay, CEM. The data set is classed as cell-based. The conditions noted are these: human, CEM (lymphoid) cells. The protocol:
(§1) Human cells lines Huh 7 and HepG2 (liver), BxPC3 (pancreatic) and CEM (lymphoid) are used for the MTS assays in 96 wells plates. Drugs are freshly diluted in media at 2×100 μM, 50 μM, 25 μM, 10 μM, 5 μM, 1 μM and 50 μl is dispensed in triplicate in the plates. The wells at the periphery of the plate contain 100 ul of media only and will be the blank controls. A replicate control with no drug is always performed in each plate. 50 μl of cells are added to the plate, at 2000 cells per well for Huh 7, HepG2 and PxPC3, and 5000 cells per well for CEM cells. No cells are added at the periphery of the plate. The media used for Huh 7, HepG2 and BxPC3 cells is DMEM with 10% FBS, and Penicillin/streptomycin, and RPMI with 10% FBS, and Penicillin/streptomycin for CEM cells. After 8 days of incubation at 37° C., 20 μl of MTS dye from the CellTiter 96 Aqueous One Solution Cell Proliferation Assay kit from Promega is added to each well and the plate incubated for 2 h at 37° C. The absorbance is then read at 490 nm using the microplate reader E1800 from Biotek. The signal is calculated by subtracting the absorbance measured in the blank controls. The CC50 (Cytotoxic Concentration) value is then determined by comparing the signal obtained with the no-drug cell control with the treated cells and calculating the concentration of drug necessary to inhibit 50% of the signal in the wells treated with drugs.

Data set [5] is described as follows: MTS cytotoxicity assay, HepG2. The conditions noted are these: human, HepG2 (liver) cells. The data set is classed as cell-based. The protocol:
as §1
On the technique in general: Formazan colour is commonly taken as a measure of viable cells.

The nature of data set [6]: Cytotoxicity in PBMC. The data set is classed as cell-based.
Data set [7] has as its system rRNA of Huh 7 clone A cells. Nature of the data set: HCV replicon assay, rRNA internal control (cytotoxicity, ΔCt rRNA). The data set is classed as cell-based, human. The protocol: (§2) HCV replicon RNA-containing Huh 7 cells (clone A cells; Apath, LLC, St. Louis, Mo.) were kept at exponential growth in Dulbecco's modified Eagle's medium (high glucose) containing 10% fetal bovine serum, 4 mM L-glutamine and 1 mM sodium pyruvate, 1× nonessential amino acids, and G418 (1,000iug/m1). Antiviral assays were performed in the same medium without G418. Cells were seeded in a 96-well plate at 1,500 cells per well, and test compounds were added immediately after seeding. Incubation time 4 days. At the end of the incubation step, total cellular RNA was isolated (RNeasy 96 kit; Qiagen). Replicon RNA and an internal control (TaqMan rRNA control reagents; Applied Biosystems) were amplified in a single-step multiplex RT-PCR protocol as recommended by the manufacturer. The HCV primers and probe were designed with Primer Express software (Applied Biosystems) and covered highly conserved 5′-untranslated region (UTR) sequences (sense primer: • 5′-AGCCATGGCGTTAGTA(T)GAGTGT-3′ (SEQ ID NO:4); antisense primer: • 5′-TTCCGCAGACCACTATGG-3′ (SEQ ID NO:5); and probe: • 5′-FAM-[…]-TAMRA-3′ (SEQ ID NO:6)).
(§3) To express the antiviral effectiveness of a compound, the threshold RT-PCR cycle of the test compound was subtracted from the average threshold RT-PCR cycle of the no-drug control (ΔCtHCV). […]
In general terms: In antiviral work, replicon cells carry a viral genome segment that copies itself.

The nature of data set [8]: MTS cytotoxicity assay, BxPC3. Format: cell-based. The conditions noted are these: human, BxPC3 (pancreatic) cells. The protocol:
as §1

Data set [9] has as its system HIV (NL43 virus) in P4CCR5luc cells. Nature of the data set: HIV screen: primary screening at 50 μM in P4CCR5luc cells (beta-gal readout). Format: cell-based. The conditions noted are these: Human immunodeficiency virus 1, NL43, P4 cells. The protocol: HIV screen: Primary Screening of PSI compounds are tested for antiviral HIV activity at 50 μM. The cells used are P4CCR5luc cells; they are human HIV indicator cells, which are derived from Hela cells, express CD4, CXCR4, CCR5, luciferase, and a beta-gal gene under the control of HIV-1 LTR. P4CCR5 luc cells are cultivated in DMEM, 10% FBS, Penicillin, Streptomycin, and G418 at 500 μg/ml. 100 μl of P4 CCR5-luc cells are plated at 10,000 cells per well in 96 well Opaque Assay plates and incubated overnight at 37° C. The next day, the media is aspirated from the plates and replaced by 100 μl of compound freshly diluted into media at 2×50 uM, in triplicate, for 4 hours at 37° C. The cells are then infected with 100 ul NL43 virus at 5 ng of p24 per well, in the presence of 2×20 ug/ml of DEAE-Dextran for 40-42 hours. Non infected, infected no drug and AZT controls are always present in triplicate on each plate. After infection the beta-gal is quantitated using the Galacto-Star kit from Applied Biosystems using the manufacturer instructions and the luminescence measured using a Victor apparatus from Perkin-Elmer. Results are represented as percentage inhibition compare to untreated cells. The assays are performed in 2 to 3 independent experiments.

Data set [10] is described as follows: MTS cytotoxicity assay, Huh 7. The note with it: human, Huh 7 (liver) cells. Format: cell-based. The protocol: as §1
Data set [11] has as its system HIV (NL43 wild type virus) in P4 CCR5-luc cells. Nature of the data set: HIV titration to determine EC50 on P4 CCR5-luc cells. Format: cell-based. The conditions noted are these: Human immunodeficiency virus 1, NL43, read-out: HIV Inhibition P4 Cells EC50. The protocol:
HIV-Titration of PSI Activity to Determine EC50 on P4 CCR-luc Cells.
P4 CCR5-luc cells are plated at 10,000 cells per well (100 μl) in 96 well Opaque Assay plates and incubated overnight at 37° C. The next day, the media is aspirated from the plates and replaced by 100 ul of compound freshly diluted into appropriate media (DMEM, 10% FBS, G418 500 μg/ml, penicillin/streptomycin) at 2× final concentrations in 5 fold dilutions, usually from 2×100 μM to 2×0.032 uM, in triplicate, for 4 hours at 37° C. The cells are then infected with 100 ul NL43 wild type or mutant virus, at 5 ng to 20 ng of p24 per well, in the presence of 2×20 ug/ml of DEAE-Dextran, for 40-42 hours. Non infected and infected no drug controls are always present in 12plicate on each plate. An AZT control is tested in parallel for each experiment. After infection, the beta-gal is quantitated in the cell lysate using the Galacto-Star kit from Applied Biosystems and the luminescence measured using a Victor apparatus from Perkin-Elmer. The EC50 (Effective Concentration) is calculated using a Microsoft® Excel® spreadsheet that calculates the concentration necessary to inhibit the 50% of the infection. The assay is performed in at least 2 independent experiments.

Data set [12] relates to HCV replicon RNA in Huh 7 cells (clone A cells). The data set is described as follows: HCV replicon assay, clone A cells (replicon RNA by RT-PCR). The data set is classed as cell-based. The protocol: as §2, §3

For the compound `C[C@@H]1[C@H](n2ccc(N)nc2=O)O[C@@](CO)(N=[N+]=[N-])[C@H]1O`, the concentration for an effect of 90% (EC90) (usually the concentration needed for an effect of 90%) in [1] amounted to 73.1 µM; in data set [2], 1.62 µM; in data set [12] (Hepatitis C virus, Huh-7, read-out: HCV Inhibition Clone A cells EC90), 7.85 µM. Also, in data set [3], the CC50 (in general, the concentration that lowers cell viability or growth by half) at 4 days is more than 100 µM. Moreover, the CC50 at 8 days in data set [4] was 400 µM; in data set [5], 300 µM; in data set [8], 400 µM; in data set [10], more than 100 µM. In data set [6], this compound registered a CC50 of more than 100 µM. Further, the “Screen HCV Clone A Cells −log10 at 50 μM (Rbz)” value in data set [7] is on record as −0.59 log10. For the same compound, the inhibition (usually the change of the read-out against control, counted positive when it falls) at 50 µM in [9] is 100%. The pEC50 (as a rule, the negative decadic logarithm of the EC50, by convention in mol/L) in data set [11] was 6.74. The “Screen HCV Clone A Cells −log10 at 50 μM (HCV)” value in data set [12] (50 μM, clone A cells, HCV RNA) is recorded as −1.4 log10.
